Entries after “also recorded” stand apart in the source; their conditions may differ.
Columns and labels:
[1] = tested on: receptor homodimer (MC4R-WT, CB1R, Chim 1-7, H158R); test: NanoBRET receptor homodimerization (BRET ratio, ΔBRET); conditions: for Relative Dimerization Compared to WT: NanoBRET data from Figure 2 (ΔBRET = chimera minus MC4R-WT), HEK293, no agonist, three independent experiments in triplicate; for homodimerization compared to MC4R-WT: NanoBRET, HEK293, n = 3 in triplicate; for nanoBRET rations, mean: difference to WT+WT, mean of the replicates
Procedure: Cells were maintained in minimal essential medium (MEM, Gibco, Waltham, MA, USA) supplemented with 5% fetal bovine serum (FBS, Gibco, Waltham, MA, USA) and NEAA incubated at 37 °C in humidified air containing 5% CO2. For the BRET assays, 4 × 10^5 HEK293 cells per well were seeded in 6-well plates for transfection.
For BRET assays, HEK293 cells were transfected 4–6 h after seeding. Transfection was performed using 8 µL FuGene HD (Promega, Mannheim, Germany) and 1.4 µg DNA in Opti-MEM (Gibco, Waltham, MA, USA). […] In addition, 200 ng Carrier DNA (pGEM3Z) was added.
For graphical depiction the delta BRET was calculated (3) ΔBRET=BRETRatiochimeric receptor−BRETRatioWT−MC4R

[2] = tested on: receptor-receptor interaction (WT, Chim 7, H158R, CB1R); test: Donor saturation assay (DSA, NanoBRET), specificity of receptor-receptor interaction; format: cell-based, human; conditions: for Bmax: DSA; for specificity of homodimer interaction: donor saturation assay, HEK293
Procedure: The interaction between MC4R-WT, CB1R, and the chimeric receptors was determined using NanoBRET™ (Promega, Mannheim, Germany). The receptors were either C-terminally tagged with HaloTag (HT) as an energy acceptor or C-terminally fused with NanoLuc (NL) as an energy donor. Then, 20 h after transfection, cells were detached from the wells and centrifuged at 130× g for 5 min and the pellet was resuspended in Opti-MEM (Gibco) without phenol red, supplemented with 4% FBS (Gibco). […] The cells were then reseeded into white opaque 96-well plates (Corning, Costar) and incubated for 4–6 h at 37° and 5% CO2. […] The BRET Ratio was calculated by dividing acceptor emission by donor emission. In order to correct for background bleedthrough, the background ratio (no acceptor DMSO control) was subtracted, and the unit was changed into miliBRET (mBU).
Supplements S1: Donor Saturation Assays (DSA) investigating the specificity of receptor-receptor interaction of WT, Chim7 and H158R.
Figure S1: Donor Saturation Assays (DSA) investigating the specificity of receptor-receptor interaction of WT, Chim7 and H158R. HEK293 cells were transfected with increasing amounts of acceptor while the amount of donor was held constant. A receptor interaction is called specific, if a saturation level (Bmax) can be achieved. This is represented by a […]
hyperbolic curve. […] WT-MC4R […]
served as positive control, CB1R was included as negative control as it is known not to […]
receptor interaction, represented by the black hyperbolic curve. The negative controls depict flat behavior. (B) Homodimerization of Chim 7 is depicted next to WT-MC4R homodimer formation. Interaction of Chim7 NL with CB1R HT served as negative control.
(C) Homodimerization of H158R is depicted next to positive and negative control. […] Data […]
represent three independent experiments each performed in triplicates. Values represent

[3] = target: MC4R/CB1R chimeric receptor Chim 5 (substitution of ICL2) (UniProt P32245); test: FRET or BRET; NanoBRET in living HEK293 cells co-transfected with a NanoLuc fusion (donor; written as binder) and a HaloTag fusion (acceptor, ligand 618; written as target), NL/HT DNA ratio 1:5; BRET ratio in mBU after subtraction of the no-acceptor control; delta BRET = chimera minus MC4R-WT homodimer
[4] = tested on: MC4R/CB1R chimeric receptors; conditions: COS-7 cells; cited from earlier work
Procedure: Results were based on cAMP accumulation assays in COS-7 cells. […] Experiments were performed using GloSensor^TM assay enabling dynamic live cell measurement of cAMP increase. In order to compare the results of this study with results previously achieved in COS-7 cells, we used the same ...

[5] = tested on: HEK293 cells; test: GloSensor cAMP accumulation, isoproterenol internal control in transfected cells; format: cell-based, human
Procedure: Gs signaling was measured using cAMP assay GloSensor™, enabling real-time measurements of cAMP accumulation. HEK293 cells were transfected with either MC4R-WT or chimeric receptors. […] Non-PTX-treated cells received 10 µL MEM without supplements (Gibco Minimum Essential Media, Waltham, MA, USA) per well at the same time point. Bioluminescence was quantified using a Berthold Microplate Reader (Mithras LB940, Berthold Technologies GmbH and Co., Bad Wildbad, Germany). […] Cells stimulated with 1 µM isoproterenol served as an internal control. GloSensor™ results were expressed as relative luminescence units (RLU). The total cAMP formation was assessed in the time–response curve by calculating the area under the curve (AUC).

[6] = target: T1, MC4R-H158R (Homo sapiens, UniProt P32245, H158R); test: NFAT luciferase reporter gene assay (PLC activation, Gq/11 signaling), H158R; format: cell-based
T1 construct: expressed in transfected cells; host or cells: HEK293
T1 sequence (P32245 whole entry H158R): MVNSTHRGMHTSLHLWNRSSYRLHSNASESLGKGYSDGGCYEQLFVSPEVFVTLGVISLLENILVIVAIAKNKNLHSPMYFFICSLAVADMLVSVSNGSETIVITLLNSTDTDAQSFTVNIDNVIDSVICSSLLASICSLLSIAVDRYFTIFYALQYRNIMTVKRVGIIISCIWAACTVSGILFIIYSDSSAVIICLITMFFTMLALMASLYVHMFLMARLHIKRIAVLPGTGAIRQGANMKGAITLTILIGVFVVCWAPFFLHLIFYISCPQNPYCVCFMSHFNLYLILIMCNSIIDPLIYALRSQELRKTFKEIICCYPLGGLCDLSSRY

[7] = target: MC4R-WT (Homo sapiens, UniProt P32245); test: NFAT luciferase reporter gene assay (PLC activation, Gq/11 signaling), MC4R-WT; conditions: MC4R-WT + PTX (50 ng/mL, 18 h before stimulation), HEK293; mean ± SEM, two to nine experiments
Sequence of MC4R-WT (P32245 whole entry): as the sequence (P32245 whole entry H158R) above, with R158H counted along it
Procedure: Cells were maintained in minimal essential medium (MEM, Gibco, Waltham, MA, USA) supplemented with 5% fetal bovine serum (FBS, Gibco, Waltham, MA, USA) and NEAA incubated at 37 °C in humidified air containing 5% CO2. […] For the NFAT luciferase-based reporter gene assay, 1.5 × 10^4 cells per well were seeded in poly-L-lysine-coated (Gibco, Waltham, MA, USA) 96-well translucent plates (Falcon, Kaiserslautern, Germany) and incubated for 24 h.
For reporter gene assays, HEK293 cells were transfected 24 h after seeding with 45 ng plasmid DNA and 0.45 µL Metafectene (Biontex, Munich, Germany), according to the manufacturer’s protocol. […]
In order to determine phospholipase C (PLC) activation, luciferase-based reporter gene assays were conducted. […] Measurements were conducted by injecting 40 µL firefly luciferase substrate (Promega, Mannheim, Germany), and luminescence was determined with a plate reader (Mithras LB940). Signaling bias was analyzed using the formula described by Kenakin [27]:(4) Δlog(Emax/EC50)=log(Emax, A/EC50,A)−log(Emax, B/EC50, B) with A referring to the respective chimeric receptor and B being the reference (MC4R-WT). Emax was determined from concentration–response curves and depicts the maximal response (efficacy); EC50 describes the potency. Bias was further calculated, creating the antilog. […]

H158R: MC4R gain-of-function mutation located in ICL2 [Chim H158R]
Relative Dimerization Compared to WT [1]: −28.94
homodimerization compared to MC4R-WT [1]: significantly impaired dimerization capacities
nanoBRET rations, mean [1]: -28.94
Bmax ([2]; HEK293, run 20211107): 109.9
Bmax ([2]; HEK293, run 20211130): 119.8
Bmax ([2]; HEK293, run 20211202): 137.4
specificity of homodimer interaction [2]: shows specific homodimer formation; also recorded: specific interaction

MC4R/CB1R chimeric receptor Chim 5 (substitution of ICL2) (from UniProt P32245 1-332)
Relative Dimerization Compared to WT (delta BRET) [3]: -41.8

4-Norleucine, 7-D-phenylalanine-alpha-melanocyte-stimulating hormone [NDP-alpha-MSH]
stimulated cAMP levels of chimeric receptors compared to MC4R-WT [4]: higher

CC(C)NCC(O)c1ccc(O)c(O)c1 (centres unmarked) [Isop, isoproterenol]
cAMP AUC ([5]; cells transfected with Chim5, 1 µM isoproterenol, Assay 1): 1461897
cAMP AUC ([5]; cells transfected with Chim5, 1 µM isoproterenol, Assay 2): 430167
cAMP AUC ([5]; cells transfected with Chim5, 1 µM isoproterenol, Assay 3): 324823
cAMP AUC ([5]; cells transfected with Chim5, 1 µM isoproterenol, Assay 4): 256187
cAMP AUC ([5]; cells transfected with Chim6, 1 µM isoproterenol, Assay 1): 1327867
cAMP AUC ([5]; cells transfected with Chim6, 1 µM isoproterenol, Assay 2): 379487
cAMP AUC ([5]; cells transfected with Chim6, 1 µM isoproterenol, Assay 3): 230900
cAMP AUC ([5]; cells transfected with Chim6, 1 µM isoproterenol, Assay 4): 310727
cAMP AUC ([5]; cells transfected with Chim7, 1 µM isoproterenol, Assay 1): 786920
cAMP AUC ([5]; cells transfected with Chim7, 1 µM isoproterenol, Assay 2): 473207
cAMP AUC ([5]; cells transfected with Chim7, 1 µM isoproterenol, Assay 3): 236040
cAMP AUC ([5]; cells transfected with Chim7, 1 µM isoproterenol, Assay 4): 192750
cAMP AUC ([5]; cells transfected with WT, 1 µM isoproterenol, Assay 1): 803127
cAMP AUC ([5]; cells transfected with WT, 1 µM isoproterenol, Assay 2): 589360
cAMP AUC ([5]; cells transfected with WT, 1 µM isoproterenol, Assay 3): 380950
cAMP AUC ([5]; cells transfected with WT, 1 µM isoproterenol, Assay 4): 376050

MC4R-WT: wild-type melanocortin 4 receptor
Relative Dimerization Compared to WT [1]: 0
Bmax ([2]; HEK293, run 20210820): 129.2
Bmax ([2]; HEK293, run 20210901): 118.3
Bmax ([2]; HEK293, run 20210903): 124.8
Bmax ([2]; HEK293, run 20210929): 127.1
Bmax ([2]; HEK293, run 20211101): 143.5
Bmax ([2]; HEK293, run 20211107): 109
Bmax ([2]; HEK293, run 20211130): 120.4
Bmax ([2]; HEK293, run 20211202): 130.7
Bmax ([2]; HEK293, run 20211217): 122.3
specificity of homodimer interaction [2]: specific interaction

MC4R-WT+MC4R-WT
nanoBRET rations, mean [1]: 0.000667

CC(=O)N[C@@H](CCCNC(=N)N)C(=O)N[C@H]1CSSC[C@@H](C(N)=O)NC(=O)[C@H](Cc2c[nH]c3ccccc23)NC(=O)[C@H](CCCNC(=N)N)NC(=O)[C@@H](Cc2ccccc2)NC(=O)[C@H](Cc2c[nH]cn2)NC(=O)[C@@H](C)NC1=O [Setmelanotide]
Emax at 1 µM ([6]; HEK293, H158R, 6 h at 37 °C, mean ± SEM, n = 4): 135.93 ± 17.16 Fold over MC4R-WT Stimulated 1 µM
Emax ([6]; bias Setmelanotide calculation): 135.93%
Emax at 1 µM [7]: 70.26 ± 9.13 Fold over MC4R-WT Stimulated 1 µM

B1: CB1R: cannabinoid receptor type 1, negative control (protein)
chain: MKSILDGLADTTFRTITTDLLYVGSNDIQYEDIKGDMASKLGYFPQKFPLTSFRGSPFQEKMTAGDNPQLVPADQVNITEFYNKSLSSFKENEENIQCGENFMDIECFMVLNPSQQLAIAVLSLTLGTFTVLENLLVLCVILHSRSLRCRPSYHFIGSLAVADLLGSVIFVYSFIDFHVFHRKDSRNVFLFKLGGVTASFTASVGSLFLTAIDRYISIHRPLAYKRIVTRPKAVVAFCLMWTIAIVIAVLPLLGWNCEKLQSVCSDIFPHIDETYLMFWIGVTSVLLLFIVYAYMYILWKAHSHAVRMIQRGTQKSIIIHTSEDGKVQVTRPDQARMDIRLAKTLVLILVVLIICWGPLLAIMVYDVFGKMNKLIKTVFAFCSMLCLLNSTVNPIIYALRSKDLRHAFRSMFPSCEGTAQPLDNSMGDSDCLHKHANNAASVHRAAESCIKSTVKIAKVTMSVSTDTSAEAL
modifications: left off: NanoLuc, C-terminal, kept | HaloTag, C-terminal, kept
homodimerization compared to MC4R-WT [1]: decreased

Source: paper PMC9405727, “A Setmelanotide-like Effect at MC4R Is Achieved by MC4R Dimer Separation” (Biomolecules, 2022)
